Reference: patent publication US8507472B2 (priority 2010, dated 2013)

Legend:
Alternaria solani = test: Alternaria test (tomato)/protective; assay type: in vivo; conditions: in vivo
Procedure, shortened: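 Young tomato plants were sprayed with compound (DMF/emulsifier formulation diluted in water) and inoculated with A. solani spores 1 day later. Plants were kept 24 h at 100% RH and 22 °C, then at 96% RH and 20 °C. Efficacy was scored 7 days post-inoculation, where 0% equals untreated control and 100% means no infection.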

Botrytis cinerea = test: Botrytis test (bean)/protective; assay type: in vivo; conditions: 100 ppm active compound, protective, evaluation 2 days after inoculation
Experimental: (§1) Solvents: 24.5 parts by weight of acetone
(§2) • 24.5 parts by weight of dimethylacetamide Emulsifier: 1 part by weight of alkylaryl polyglycol ether
(§3) To produce a suitable preparation of active compound, 1 part by weight of active compound is mixed with the stated amounts of solvents and emulsifier, and the concentrate is diluted with water to the desired concentration.
To test for protective activity, young plants are sprayed with the active compound preparation at the stated application rate. After the spray coating has dried on, 2 small pieces of agar colonized by Botrytis cinerea are placed onto each leaf. The inoculated plants are placed in a dark chamber at about 20° C. and 100% relative atmospheric humidity.
2 days after the inoculation, the size of the infected areas on the leaves is evaluated. 0% means an efficacy which corresponds to that of the control, whereas an efficacy of 100% means that no infection is observed.

Leptosphaeria nodorum = Leptosphaeria nodorum test (wheat)/protective; assay type: in vivo; conditions: in vivo
Experimental: Solvent: 49 parts by weight of N,N-dimethylformamide
(§4) Emulsifier: 1 part by weight of alkylaryl polyglycol ether
To produce a suitable preparation of active compounds, 1 part by weight of active compound is mixed with the stated amounts of solvent and emulsifier, and the concentrate is diluted with water to the desired concentration.
To test for protective activity, young wheat plants are sprayed with the active compound preparation at the stated application rate. 1 day after the treatment, the plants are inoculated with an aqueous spore suspension of Leptosphaeria nodorum and then remain at 100% rel. atmospheric humidity and 22° C. for 48 h. The plants are then placed in a greenhouse at 90% rel. atmospheric humidity and a temperature of 22° C.
Evaluation is carried out 7-9 days after the inoculation. 0% means an efficacy which corresponds to that of the control, whereas an efficacy of 100% means that no infection is observed.

Phytophthora infestans = assay type: in vivo; conditions: in vivo
Pyrenophora teres = Pyrenophora teres test (barley)/protective; assay type: in vivo; conditions: in vivo
Procedure, shortened: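 Protective test: young barley plants sprayed at the stated rate with compound in DMF/alkylaryl polyglycol ether diluted with water, inoculated with P. teres spores 1 day later, kept 48 h at 100% rel. humidity and 22° C., then greenhouse at 80% and 20° C. Efficacy scored 7-9 days post-inoculation (0% = control, 100% = no infection).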

Sphaerotheca fuliginea = test: Sphaerotheca test (cucumber)/protective; assay type: in vivo; conditions: in vivo
Procedure, shortened: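 Protective test: young cucumber plants sprayed with compound (DMF/alkylaryl polyglycol ether concentrate diluted in water) at the stated rate, inoculated with S. fuliginea spores 1 day later, then kept in greenhouse at 23 °C, 70% RH. Efficacy scored 7 days post-inoculation; 0% equals untreated control, 100% means no infection.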

Venturia inaequalis = test: Venturia test (apple)/protective; assay type: in vivo; conditions: 100 ppm active compound, protective, evaluation 10 days after inoculation
Experimental: Solvents: 24.5 parts by weight of acetone • 24.5 parts by weight of dimethylacetamide Emulsifier: 1 part by weight of alkylaryl polyglycol ether
as §3
(§5) To test for protective activity, young plants are sprayed with the active compound preparation at the stated application rate. After the spray coating has dried on, the plants are inoculated with an aqueous conidia suspension of the apple scab pathogen Venturia inaequalis and then remain in an incubation cabin at about 20° C. and 100% relative atmospheric humidity for 1 day.
(§6) The plants are then placed in a greenhouse at about 21° C. and a relative atmospheric humidity of about 90%.
(§7) Evaluation is carried out 10 days after the inoculation. 0% means an efficacy which corresponds to that of the control, whereas an efficacy of 100% means that no infection is observed.

Uromyces appendiculatus = test: Uromyces test (bean)/protective; assay type: in vivo; conditions: in vivo
Experimental: as §1, §2, §3
as §5, with “spore” for “conidia”, “bean rust” for “apple scab”, “Uromyces appendiculatus” for “Venturia inaequalis”
as §6, §7

DON/AcDON production = test: microbe, parasite or virus in culture; assay type: cell-based, Fusarium graminearum; conditions: 7 days at 28° C.
Fusarium graminearum = test: microbe, parasite or virus in culture; assay type: cell-based; conditions: 50 μM
[1] = tested on: Fusarium nivale (var. majus); test: Fusarium nivale (var. majus) test (wheat)/protective; assay type: in vivo; conditions: 1000 ppm active compound, protective, evaluation 5 days after inoculation
Experimental: Solvent: 49 parts by weight of N,N-dimethylacetamide
as §4
To produce a suitable preparation of active compound, 1 part by weight of active compound is mixed with the stated amounts of solvent and emulsifier, and the concentrate is diluted with water to the desired concentration.
To test for protective activity, young plants are sprayed with the active compound preparation at the stated application rate.
After the spray coating has dried on, the plants are sprayed with spores of a spore suspension of Fusarium nivale (var. majus).
The plants are placed in a greenhouse chamber under a translucent incubation hood at 10° C. and 100% relative atmospheric humidity.
Evaluation is carried out 5 days after the inoculation. 0% means an efficacy which corresponds to that of the control, whereas an efficacy of 100% means that no infection is observed.

Row | SMILES | efficacy in % (Alternaria solani) [%] | efficacy in % (Botrytis cinerea) [%] | efficacy in % (Leptosphaeria nodorum) [%] | efficacy in % (Phytophthora infestans) [%] | efficacy in % (Pyrenophora teres) [%] | efficacy in % (Sphaerotheca fuliginea) [%] | efficacy in % (Venturia inaequalis) [%] | efficacy in % (Uromyces appendiculatus) [%] | % inhibition of DON/AcDON at 50 μM (DON/AcDON production) [%] | % inhibition of the fungal growth of Fusarium graminearum at 50 μM (Fusarium graminearum) [%] | efficacy in % [1] [%]
1 | CC1CCc2c(-c3ccncc3)c(-c3ccc(F)cc3)nn21 (stereo not shown) [Example 74] | 95 | 100 | 88 | 90 | 100 | 93 | 95 |  |  |  | 
2 | CCC(=O)Nc1cc(-c2c(-c3ccc(F)cc3)nn3c2CCOC3(C)C)ccn1 [Example 86] | 90 | 100 | 70 |  | 100 | 100 | 95 | 95 |  |  | 
3 | CC(C)Nc1cc(-c2c(-c3ccc(F)cc3)nn3c2CCC3)ccn1 [Example 52] | 90 | 78 |  | 95 | 80 |  | 94 |  | 99 | 19 | 
4 | Fc1ccc(-c2nn3c(c2-c2ccncc2)CCC3)cc1 [Example 7] | 95 | 95 |  | 95 | 80 | 90 | 76 |  | 99 | 100 | 
5 | O=C(Nc1cc(-c2c(-c3ccccc3)nn3c2CCCC3)ccn1)c1ccsc1 [Example 51] | 95 | 99 |  |  | 90 |  | 74 | 86 | 100 | 41 | 
6 | c1ccc(-c2nn3c(c2-c2ccncc2)CCCC3)cc1 [Example 9] | 100 | 93 | 95 | 90 | 94 | 86 | 95 |  | 99 | 100 | 
7 | CC(=O)Nc1cc(-c2c(-c3cccs3)nn3c2CCCC3)ccn1 [Example 87] | 80 | 100 | 70 | 90 | 90 | 95 |  | 93 |  |  | 
8 | CN(C)C=Nc1cc(-c2c(-c3ccccc3)nn3c2CCCC3)ccn1 [Example 38] | 95 |  |  | 70 | 95 |  |  |  | 99 | 89 | 86
